From article PMC4359714 (Naunyn-Schmiedeberg's Archives of Pharmacology, 2015)

How the values were obtained:
[1] = tested on: TRPM8-mediated icilin-induced wet-dog shakes in rats; assay: Icilin-induced wet-dog shake (WDS) model; assay type: in vivo, rat
Method: The TRPM8 antagonist (1, 3, or 10 mg/kg) or vehicle control (5 % Tween 80 in OraPlus®) was administered p.o. 90 min prior to administration of icilin (0.5 mg/kg, 1 ml/kg, i.p., 100 % PEG 400). […] Rats were viewed through transparent Plexiglas® observation cylinders that were placed on a custom, opaque, plastic apparatus such that one rat could not view another rat.
In vivo IC50 and IC90 estimates using WDS model data were determined by fitting a sigmoidal dose-response curve to individual animal number of WDS versus resulting plasma concentration. Behavioral and electrophysiological data are expressed as mean ± standard error of the mean (S.E.M.). Results were analyzed using one-way analysis of variance (ANOVA) with Dunnett’s multiple-comparisons post-hoc test for significance relative to vehicle. […] Actual gram values are plotted on a logarithmic scale Y-axis of the figures for convenience. Statistical calculations and graphs were made using GraphPad Prism 5.01 (GraphPad Software Inc, San Diego, CA). Percent responders to menthol stimulation in the ex vivo skin-nerve preparation were compared under vehicle and antagonist conditions through the use of Fisher’s exact test. Responses of C fibers to increasing mechanical forces under vehicle or antagonist conditions were compared using a two-way ANOVA with a Bonferonni post-hoc analysis.

rats = assay: Open field activity; assay type: in vivo, rat; conditions: 5.6 mg/kg i.p., 30 min before; p < 0.05 vs vehicle (14,484 ± 1686 cm)
Method: Rats were habituated in a reversed light cycle room in home cages for at least 1 week and acclimated to the testing room for 1 h prior to dosing. TRPM8 antagonist (10, 30, or 100 mg/kg) or vehicle (5 % Tween 80 in OraPlus®) was injected 2 h before placing an animal in the open-field apparatus. Open-field activity was measured using a system that counts interruptions of a set of photobeams for the course of 60 min (Kinder Scientific, Poway, CA). To begin a session, animals were removed from the home cage and placed individually into an independent Plexiglas box (41 cm L × 41 cm W × 38 cm H) surrounded by a frame consisting of 32 photocells (16Y and 16X) that track the movement of the animal. Photobeam breaks were used as an indication of activity and were measured as the following parameters per minute: basic movements (beam breaks), distance traveled (cm), time spent (s), and number of repetitive beam breaks (i.e., stereotypic movement). Chlordiazepoxide, which consistently elicits a decrease in open field activity, was used as a positive control. Chlordiazepoxide was formulated in saline at 5.6 mg/kg i.p. and dosed 30 min before the start of the open field assay.

[2] = tested on: cold hypersensitivity after CFA or peripheral nerve injury models; conditions: ref Knowlton et al. [2011]; cited from earlier work
SNL rats = assay: SNL-induced tactile allodynia (von Frey, up-down method); assay type: in vivo, rat; conditions: 200 mg/kg p.o.; p < 0.05 vs vehicle (4.4 ± 1.2 g)
Method: SNL surgery was performed using aseptic surgical techniques and a stereomicroscope (Kim and Chung [1992]). Spinal nerve injury was caused by ligating the left L5 and L6 spinal nerves, with special care to avoid damage to the L4 spinal nerve or surrounding area. More specifically, under gaseous anesthesia with a mixture of O2 and isoflurane (3 % for induction and 2 % for maintenance), skin was excised and the longissimus lumborum muscle, part of articular processes (L4-S1), and the fascia above L6 spinal nerve were carefully removed. […]
Behavioral testing Two weeks post surgery, mechanical sensitivity was measured by determining the median 50 % foot withdrawal threshold for von Frey filaments using the up-down method (Chaplan et al. [1994]). […] To avoid possible reflex responses, only abrupt withdrawal of the foot accompanied by pain indicative behaviors (namely paw flinching, shaking, or licking for more than 2 s) was recorded as a response. […]
In vivo IC50 and IC90 estimates using WDS model data were determined by fitting a sigmoidal dose-response curve to individual animal number of WDS versus resulting plasma concentration. Behavioral and electrophysiological data are expressed as mean ± standard error of the mean (S.E.M.). Results were analyzed using one-way analysis of variance (ANOVA) with Dunnett’s multiple-comparisons post-hoc test for significance relative to vehicle. […]

## O=C1NC(c2cccc([N+](=O)[O-])c2)=CCN1c1ccccc1O [icilin, reference compound]
[1]; icilin i.p. 0.3, 0.5, 0.75, 1 mg/kg
  ED80 for induction of wet-dog shakes: less than 0.5 mg/kg
[1]; icilin i.p. 0.3–1.0 mg/kg dose-response, interval 0.28–0.75, data not shown
  ED90 for induction of wet-dog shakes: 0.46 mg/kg

## CNC1=Nc2ccc(Cl)cc2C(c2ccccc2)=[N+]([O-])C1 [chlordiazepoxide, Chlordiazepoxide, reference compound]
rats
  total distance traveled, open field (positive control): 9423 ± 745 cm

## COc1cc(CN(CCN)C(=O)OC(C)c2ccccc2)ccc1OCc1ccccc1 (centres unmarked) [PBMC]
[2]
  effect on cold hypersensitivity after CFA or peripheral nerve injury: attenuated cold hypersensitivity

## NCC1(CC(=O)O)CCCCC1 [gabapentin, reference compound]
SNL rats
  tactile threshold (von Frey), SNL model (positive control): 12.4 ± 1.2 g
